# Results as given in patent publication US20100298252A1, “METHODS AND COMPOSITIONS FOR OPHTHALMIC TREATMENT OF FUNGAL AND BACTERIAL INFECTIONS” (priority 2004, published 2010).
# Assays:
# [1] = tested on: Fusarium sp. 3; experiment: microbe, parasite or virus in culture; assay type: cell-based; conditions: for % decrease MIC 50 / % decrease MIC 90 / MIC 50 combined with Tricide / MIC 90 combined with Tricide: Tricide 540 ug/ml; for MIC50 / MIC90: antifungal alone
# [2] = tested on: Penicillium sp.; experiment: Antifungal MIC 50 / MIC 90 alone and combined with Tricide; assay type: cell-based; conditions: for % decrease MIC 50 / % decrease MIC 90 / MIC 50 combined with Tricide / MIC 90 combined with Tricide: Tricide 200 ug/ml; for MIC50 / MIC90: antifungal alone
# [3] = tested on: Aspergillus sp.; experiment: as above; assay type: cell-based; conditions: for % decrease MIC 50 / % decrease MIC 90 / MIC 50 combined with Tricide / MIC 90 combined with Tricide: Aspergillus sp.; for MIC50 / MIC90: Aspergillus, antifungal alone; for MIC50 / MIC90 / Summary % reduction in MIC 50 using Tricide / Summary % reduction in MIC 90 using Tricide: Aspergiullus sp.
# [4] = tested on: Paecilomyces variotti ATCC 36257; experiment: as above; assay type: cell-based; conditions: for MIC50 / MIC90: ATCC36257, Paecilomyces variotti ATCC 36257, antifungal alone; for MIC50: read-out: MIC 50; for MIC90: read-out: MIC 90; for Summary % reduction in MIC 50 using Tricide / Summary % reduction in MIC 90 using Tricide: Paecilomyces variotti ATCC36257; for % decrease MIC 50 / % decrease MIC 90 / MIC 50 combined with Tricide / MIC 90 combined with Tricide: Paecilomyces variotti, Tricide […]
# [5] = tested on: Candidia albicans ATCC 90028; experiment: as above; assay type: cell-based, Candida albicans; conditions: for MIC50 / MIC90: ATCC90028, antifungal alone; for MIC50 / MIC90 / Summary % reduction in MIC 50 using Tricide / Summary % reduction in MIC 90 using Tricide: Candidia albicans ATCC 90028;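 for all read-outs here: MIC 50 and MIC 90 values are means, and the percent decrease is the drop in MIC when the antifungal is combined with Tricide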
# [6] = tested on: Curvularia sp.; experiment: as above; assay type: cell-based; conditions: for Summary % reduction in MIC 50 using Tricide / Summary % reduction in MIC 90 using Tricide / MIC50 / MIC90: Curvularia sp.; for MIC50 / MIC90: antifungal alone;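 for all read-outs here: antifungal MIC 50 and MIC 90 values against fungal isolates, with percent figures expressing how much the MIC fell once Tricide was added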
# [7] = tested on: Fusarium sp. 2; experiment: microbe, parasite or virus in culture; assay type: cell-based; conditions: for MIC50 / MIC90: antifungal alone
# [8] = tested on: Fusarium sp. 1; experiment: microbe, parasite or virus in culture; assay type: cell-based; conditions: for Summary % reduction in MIC 50 using Tricide / Summary % reduction in MIC 90 using Tricide: Fasarium sp. 1; for MIC50 / MIC90: antifungal alone;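 for all read-outs here: mean MIC 50 and MIC 90 values against fungal isolates, with percent decrease in MIC when the antifungal is combined with Tricide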
# [9] = tested on: Cladosporium sp.; experiment: Antifungal MIC 50 / MIC 90 alone and combined with Tricide; assay type: cell-based; conditions: for MIC50 / MIC90: antifungal alone
# [10] = Curvilaria sp., Tricide 200 ug/ml
# [11] = Fusarium sp. 1, Tricide 540 ug/ml
smiles,measurement,setting,value
"CCC(C)n1ncn(-c2ccc(N3CCN(c4ccc(OCC5COC(Cn6cncn6)(c6ccc(Cl)cc6Cl)O5)cc4)CC3)cc2)c1=O (centres unmarked) [Itraconazole, itraconazole]",Summary % reduction in MIC 50 using Tricide,[1],100%
same,Summary % reduction in MIC 90 using Tricide,[1],100%
same,% decrease MIC 50,[1],100%
same,% decrease MIC 90,[1],100%
same,MIC 50 combined with Tricide,[1],0 µg/mL
same,MIC 90 combined with Tricide,[1],0 µg/mL
same,MIC50,[1],> 128 µg/mL
same,MIC90,[1],> 128 µg/mL
same,Summary % reduction in MIC 50 using Tricide,[2],100%
same,Summary % reduction in MIC 90 using Tricide,[2],100%
same,% decrease MIC 50,[2],100%
same,% decrease MIC 90,[2],100%
same,MIC 50 combined with Tricide,[2],0 µg/mL
same,MIC 90 combined with Tricide,[2],0 µg/mL
same,MIC50,[2],0.5 µg/mL
same,MIC90,[2],0.722 µg/mL
same,% decrease MIC 50,[3]; Tricide 200 ug/ml,84%
same,% decrease MIC 90,[3]; Tricide 200 ug/ml,90%
same,MIC 50 combined with Tricide,[3]; Tricide 200 ug/ml,0.1250 µg/mL
same,MIC 90 combined with Tricide,[3]; Tricide 200 ug/ml,0.25 µg/mL
same,MIC50,[3],0.786 µg/mL
same,MIC90,[3],2.43 µg/mL
same,Summary % reduction in MIC 50 using Tricide,[3],84%
same,Summary % reduction in MIC 90 using Tricide,[3],90%
same,MIC50,[4],0.0764 µg/mL
same,MIC90,[4],0.5 µg/mL
same,Summary % reduction in MIC 50 using Tricide,[4],95%
same,Summary % reduction in MIC 90 using Tricide,[4],50%
same,% decrease MIC 50,[4],95%
same,% decrease MIC 90,[4],50%
same,MIC 50 combined with Tricide,[4],0.0039 µg/mL
same,MIC 90 combined with Tricide,[4],0.25 µg/mL
same,MIC50,[5]; Candida albicans,0.201 µg/mL
same,MIC90,[5]; Candida albicans,> 1 µg/mL
same,% decrease MIC 50,"[5]; Candida albicans, Tricide […]",100%
same,% decrease MIC 90,"[5]; Candida albicans, Tricide […]",100%
same,MIC 50 combined with Tricide,"[5]; Candida albicans, Tricide […]",0 µg/mL
same,Summary % reduction in MIC 50 using Tricide,[5],100%
same,Summary % reduction in MIC 90 using Tricide,[5],100%
same,% decrease MIC 50,[6]; [10],97-100% ^
same,% decrease MIC 90,[6]; [10],80-100% ^
same,MIC 50 combined with Tricide,[6]; [10],0 to 0.0250 µg/mL
same,MIC 90 combined with Tricide,[6]; [10],0 to 0.4 µg/mL
same,Summary % reduction in MIC 50 using Tricide,[6],97%-100%
same,Summary % reduction in MIC 90 using Tricide,[6],80%-100%
same,MIC50,[6],0.778 µg/mL
same,MIC90,[6],2 µg/mL
same,Summary % reduction in MIC 50 using Tricide,[7],>99.9%-100%
same,Summary % reduction in MIC 90 using Tricide,[7],>99.9%-100%
same,% decrease MIC 50,[7]; Tricide 540 ug/ml,>99.9-100% ^
same,% decrease MIC 90,[7]; Tricide 540 ug/ml,>99.9-100% ^
same,MIC50,[7],> 128 µg/mL
same,MIC90,[7],> 128 µg/mL
same,Summary % reduction in MIC 50 using Tricide,[8],>99.9%-100%
same,Summary % reduction in MIC 90 using Tricide,[8],99.9%-100%
same,% decrease MIC 50,[8]; [11],>99.9-100% ^
same,% decrease MIC 90,[8]; [11],99.9-100%^
same,MIC 90 combined with Tricide,[8]; [11],0 to 0.05 µg/mL
same,MIC50,[8]; Fusarium sp. 1,> 128 µg/mL
same,MIC90,[8]; Fusarium sp. 1,> 128 µg/mL
same,Summary % reduction in MIC 50 using Tricide,[9],93.8%
same,Summary % reduction in MIC 90 using Tricide,[9],96.9%
same,% decrease MIC 50,[9]; Tricide 200 ug/ml,>93.8% ^
same,% decrease MIC 90,[9]; Tricide 200 ug/ml,96.9%
same,MIC 50 combined with Tricide,[9]; Tricide 200 ug/ml,<0.25 µg/mL
same,MIC 90 combined with Tricide,[9]; Tricide 200 ug/ml,0.5 µg/mL
same,MIC50,[9],4 µg/mL
same,MIC90,[9],16 µg/mL
"C[C@@H]1C/C=C/C=C/C=C/C=C/[C@H](O[C@@H]2O[C@H](C)[C@@H](O)[C@H](N)[C@@H]2O)C[C@@H]2O[C@](O)(C[C@@H](O)C[C@H]3O[C@@H]3/C=C/C(=O)O1)C[C@H](O)[C@H]2C(=O)O [Natamycin, natamycin]",Summary % reduction in MIC 50 using Tricide,[1],100%
same,Summary % reduction in MIC 90 using Tricide,[1],100%
same,% decrease MIC 50,[1],100%
same,% decrease MIC 90,[1],100%
same,MIC 50 combined with Tricide,[1],0 µg/mL
same,MIC 90 combined with Tricide,[1],0 µg/mL
same,MIC50,[1],> 19.2 µg/mL
same,MIC90,[1],> 19.2 µg/mL
same,Summary % reduction in MIC 50 using Tricide,[2],100%
same,Summary % reduction in MIC 90 using Tricide,[2],100%
same,% decrease MIC 50,[2],100%
same,% decrease MIC 90,[2],100%
same,MIC 50 combined with Tricide,[2],0 µg/mL
same,MIC 90 combined with Tricide,[2],0 µg/mL
same,MIC50,[2],9.6 µg/mL
same,MIC90,[2],19.2 µg/mL
same,% decrease MIC 50,[3]; Tricide 200 ug/ml,93.8%
same,% decrease MIC 90,[3]; Tricide 200 ug/ml,0%
same,MIC 50 combined with Tricide,[3]; Tricide 200 ug/ml,1.2 µg/mL
same,MIC 90 combined with Tricide,[3]; Tricide 200 ug/ml,>19.2 µg/mL
same,% decrease MIC 50,[3]; Tricide 400 ug/ml,100%
same,% decrease MIC 90,[3]; Tricide 400 ug/ml,100%
same,MIC 50 combined with Tricide,[3]; Tricide 400 ug/ml,0 µg/mL
same,MIC 90 combined with Tricide,[3]; Tricide 400 ug/ml,0 µg/mL
same,MIC50,[3],> 19.2 µg/mL
same,MIC90,[3],19.2 µg/mL
same,Summary % reduction in MIC 50 using Tricide,[3],100%
same,Summary % reduction in MIC 90 using Tricide,[3],100%
same,MIC50,[4],2.4 to 4.8 µg/mL
same,MIC90,[4],9.6 µg/mL
same,Summary % reduction in MIC 50 using Tricide,[4],75-87.5%^
same,Summary % reduction in MIC 90 using Tricide,[4],50%
same,% decrease MIC 50,[4],75%-87.5%
same,% decrease MIC 90,[4],50%
same,MIC 50 combined with Tricide,[4],0.6 µg/mL
same,MIC 90 combined with Tricide,[4],4.8 µg/mL
same,MIC50,[5]; Candida albicans,> 14.4 µg/mL
same,MIC90,[5]; Candida albicans,> 19.2 µg/mL
same,% decrease MIC 50,"[5]; Candida albicans, Tricide […]",99.3%
same,% decrease MIC 90,"[5]; Candida albicans, Tricide […]",90%
same,MIC 50 combined with Tricide,"[5]; Candida albicans, Tricide […]",≦0.10 ug/ml
same,MIC 90 combined with Tricide,"[5]; Candida albicans, Tricide […]",4.92 µg/mL
same,Summary % reduction in MIC 50 using Tricide,[5],99.3%
same,Summary % reduction in MIC 90 using Tricide,[5],90%
same,% decrease MIC 50,[6]; [10],100%
same,% decrease MIC 90,[6]; [10],100%
same,MIC 50 combined with Tricide,[6]; [10],0 µg/mL
same,Summary % reduction in MIC 50 using Tricide,[6],100%
same,Summary % reduction in MIC 90 using Tricide,[6],100%
same,MIC50,[6],9.6 µg/mL
same,MIC90,[6],19.2 µg/mL
same,Summary % reduction in MIC 50 using Tricide,[7],100%
same,Summary % reduction in MIC 90 using Tricide,[7],>99%-100%
same,% decrease MIC 50,[7]; Tricide 540 ug/ml,100%
same,% decrease MIC 90,[7]; Tricide 540 ug/ml,>99-100% ^
same,MIC 50 combined with Tricide,[7]; Tricide 540 ug/ml,0 µg/mL
same,MIC 90 combined with Tricide,[7]; Tricide 540 ug/ml,0 to 1.92 µg/mL
same,MIC50,[7],> 19.2 µg/mL
same,MIC90,[7],> 19.2 µg/mL
same,Summary % reduction in MIC 50 using Tricide,[8],100%
same,Summary % reduction in MIC 90 using Tricide,[8],100%
same,% decrease MIC 50,[8]; [11],100%
same,% decrease MIC 90,[8]; [11],100%
same,MIC 50 combined with Tricide,[8]; [11],0 µg/mL
same,MIC 90 combined with Tricide,[8]; [11],0 µg/mL
same,MIC50,[8]; Fusarium sp. 1,> 19.2 µg/mL
same,MIC90,[8]; Fusarium sp. 1,> 19.2 µg/mL
same,MIC50,[9],> 19.2 µg/mL
same,MIC90,[9],> 19.2 µg/mL
